In US11202795B2, “Means and methods for treatment of early-onset Parkinson's disease” (VIB VZW, priority 2014, dated 2021):
“Also recorded” adds a separate entry of the source.

What was measured:
PINK1 mutant flies = test: Flight assay of PINK1 mutant flies fed with FAS inhibitor; type: in vivo, Drosophila melanogaster
Description: FASN is a 273 kDa protein that produces palmitate, which is a precursor of fatty acids in a seven-step enzymatic reaction. FASN uses malonyl CoA and acetyl CoA as substrates. Several inhibitors of FASN function exist. Tests were performed to determine whether defective flight in PINK1 mutants could be pharmacologically rescued.
One-day-old adult flies were placed on molasses medium supplemented with 100 μM Cerulenin (Enzo Life Sciences) or 3 μM Irgasan (Sigma) (2.5% final ethanol concentration) or supplemented with 2.5% ethanol for control medium. […] To determine mitochondrial morphology, embryos were placed on molasses medium supplemented with 100 μM Cerulenin (2.5% final ethanol concentration) or supplemented with 2.5% ethanol for control medium and grown to the third instar larval stage. These third instar larvae were dissected and used for experiments (see below).
The flight assay was conducted on male flies using batches of five flies each. The flies were placed in an empty vial and gently tapped.

PINK−/− MEFs = test: Shotgun lipidomics of mitochondrial fractions (cardiolipin levels); type: cell-based, mice; conditions: compared to control MEFs
Source text: Nonetheless, when FASN activity was lowered further in PINK1^−/− mutants, either by genetic or by pharmacological inhibition, the palmitate levels drop further. […] Only unsaturated phosphatidylglycerol (PG) is a good substrate for CL synthase (Bobyleva et al. (1997) Biochem. Mol. Biol. Int. 41:469-480) and high levels of palmitate shift the balance toward more saturated PG (Ostrander et al. (2001) J. Biol. Chem. 276:38061-38067). Opposite to this, it was confirmed that inhibition of FASN results in more unsaturated PG, while wondering if FASN inhibition results in increased CL levels.
(§1) Cells were treated with 10 μM Cerulenin (0.1% ethanol) or control medium supplemented with 0.1% ethanol.
Mitochondria were isolated and resuspended in ammonium bicarbonate buffer. Lipids were extracted and analyzed using shotgun mass spectrometry (lipotype). In short, using Chloroform and Methanol, lipids were extracted via a two-step lipid extraction process. These extracted lipids were then immediately subjected to mass spectrometric analysis. Lipid data were acquired on a hybrid quadrupole/ORBITRAP® mass spectrometer (Q-Exactive, Thermo-Fisher) equipped with an automated nanoflow electrospray ion source (TRIVERSA NANOMATE® Advion) in both positive and negative ion mode. LIPOTYPE® XPLORER® was used to identify lipids on unprocessed mass spectra.

PINK1−/− MEFs = test: ATP levels of PINK1−/− MEFs treated with FASN inhibitor; type: cell-based, mice; conditions: 10 μM Cerulenin vs untreated cells
Description: To directly test if further lowering FASN activity in PINK mutant cells rescues the mitochondrial dysfunction in these cells, ATP levels were tested.
as §1
(§2) ATP levels were determined as previously described (Morais et al. (2014) Science 344:203-207) using an ATP determination kit (Invitrogen) according to supplier's protocol. Luminescence was measured on a luminometer (Biorad) and values were normalized to total protein content (Bradford method).

[1] = test system: fibroblasts from patients carrying mutations in PINK1 (L1703); test: ATP levels of fibroblasts from patients carrying PINK1 mutations; type: cell-based, human; conditions: patient fibroblasts with PINK1 mutations (L1703), 10 μM Cerulenin vs untreated cells
Description: To directly test if further lowering FASN activity in PINK mutant cells rescues the mitochondrial dysfunction in these cells, ATP levels were tested. […] Thus, the inhibition of FASN with an inhibitor rescues in flies and cells isolated from mice and patients the PINK1-induced mitochondrial defects.
as §1, §2

[2] = test system: control cells (PINK1+/+ MEF and L2134 controls); test: ATP levels of control cells treated with FASN inhibitor; type: cell-based
Description: as §2, with “Cells were treated with 10 μM Cerulenin (0.1% ethanol) or control medium supplemented with 0.1% ethanol. ATP levels” for “ATP levels”

SMILES | flight ability (PINK1 mutant flies; PINK1 mutant flies on food with different concentrations of cerulenin, flight assay every 24 hours) | cardiolipin (CL) levels (PINK−/− MEFs) | ATP levels (PINK1−/− MEFs) | ATP levels [1] | ATP levels [2] | flight ability (PINK1 mutant flies; PINK1 mutant flies (B9), concentrations between 1-10 μM irgasan in food)
C/C=C/C/C=C/CCC(=O)[C@H]1O[C@H]1C(N)=O [cerulenin] | increased flight ability; also recorded: a dose-response effect was observed | almost completely restored the levels of all the CL species that were assessed back to control levels | elevated ATP levels compared to untreated cells; also recorded: increased levels of ATP | elevated ATP levels compared to untreated cells; also recorded: increased levels of ATP | did not have an effect | 
Oc1cc(Cl)ccc1Oc1ccc(Cl)cc1Cl [irgasan] |  |  |  |  |  | clearly enhance the flight ability
